{
  "source": "paper PMC8136825",
  "about": "“A nucleotide-sensing endonuclease from the Gabija bacterial defense system” (Nucleic Acids Research, 2021)",
  "target": "T1, GajA (Bacillus cereus, UniProt J8H9C1)",
  "T1 construct": "full length residues 1-578, N-terminal 6xHis tag kept (pET28a, NdeI/NotI), expressed in E. coli BL21(DE3), 69 kDa with tag; without GajB",
  "T1 sequence (J8H9C1 whole entry, the tested form may be a part)": "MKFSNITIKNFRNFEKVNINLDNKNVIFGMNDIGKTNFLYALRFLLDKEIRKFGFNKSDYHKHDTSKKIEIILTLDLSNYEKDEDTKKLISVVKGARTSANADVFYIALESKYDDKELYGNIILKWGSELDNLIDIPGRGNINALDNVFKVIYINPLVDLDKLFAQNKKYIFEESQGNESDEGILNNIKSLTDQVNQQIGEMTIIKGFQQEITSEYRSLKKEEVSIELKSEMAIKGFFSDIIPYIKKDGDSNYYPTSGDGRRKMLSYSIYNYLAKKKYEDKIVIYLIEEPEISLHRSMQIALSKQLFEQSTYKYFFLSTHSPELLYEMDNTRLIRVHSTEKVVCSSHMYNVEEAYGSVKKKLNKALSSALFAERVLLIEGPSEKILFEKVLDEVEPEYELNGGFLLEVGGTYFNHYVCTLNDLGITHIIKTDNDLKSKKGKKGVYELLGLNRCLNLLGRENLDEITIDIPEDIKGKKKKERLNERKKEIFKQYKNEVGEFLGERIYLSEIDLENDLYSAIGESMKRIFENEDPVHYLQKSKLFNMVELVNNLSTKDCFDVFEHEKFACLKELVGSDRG",
  "assay": "inhibition of lambda955 DNA cleavage, agarose gel densitometry",
  "format": "biochemical",
  "settings": "20 nM lambda955 DNA, 200 nM enzyme, 20 mM Tris-HCl pH 9, 1 mM MgCl2, 37 °C, 5 min; allosteric, ATPase-like domain",
  "data": [
    {"molecule": "Nc1ncnc2c1ncn2[C@@H]1O[C@H](COP(=O)(O)OP(=O)(O)O)[C@@H](O)[C@H]1O", "note": "[ADP]", "values": [
      {"measurement": "inhibition", "result": "strongly inhibited by all NTP and dNTP, even ADP, while AMP had no significant effect"}
    ]}
  ]
}
